Here are results for 2 compounds from patent US20250206780A1, “CYCLIC PEPTIDES AND THEIR USE FOR THE TREATMENT OF DISEASES ASSOCIATED WITH DICARBONYLS LIKE METHYLGLYOXAL” (UNIVERSITÄT HEIDELBERG, priority 2022, published 2025).

Starred links: 1 amine or outer side, 2 acyl side, 3 side chain; linkers in the order of their positions; H or OH if unused. Positions of bridges follow the written chain, without caps; N, C: chain ends. Residues, ends and D or L forms follow the SMILES beside them. Groups on a side chain read outwards from the residue. *: point of attachment. d(γGlu) = O=C(O)[C@@H](CCC(=O)[*:2])N[*:1]; C16 diacid = O=C(O)CCCCCCCCCCCCCCC(=O)*; Dap = NC[C@H](N)C(=O)O

The conditions of data set [1]: Bowman et al., 1996; cited from earlier work.
Details of data set [2]: species or system mice. As to conditions: mouse, in vivo. As for the experimental part: Animals were injected with Dap3 and blood was collected into EDTA containing tubes at indicated time points with n=3 per time point. After centrifugation EDTA plasma was stored at −80° C. until analysis. Dap3 was quantified by LC MS/MS as described in section 6.
6. Detection of Dap3 and MG-Modified Dap3 by LC-MS/MS A Dap3-MG standard was prepared by incubation of Dap3 with methylglyoxal in 0.1 M phosphate buffer followed by purification by preparative HPLC. The peptide CycK(e-Hdd)R4E was employed as internal standard which was added to the standard curve and plasma samples prior to precipitation. Prior to analysis 2 parts acetonitrile were added to the plasma, vortexed and centrifuged for 10 min at 13,000 g. The supernatant was analysed using an ACQUITY UPLC I fitted with a Acquity UPLC BEH C18 column (Waters, 2.1 mm*100 mm, […]) with a pre-column (2.1×5 mm, 1.7 μm) and a Xevo TQ-XS mass spectrometer (Waters, USA). Solvent A was water+0.1% formic acid and solvent B was acetonitrile+0.1% formic acid. A linear gradient from 0-100% solvent B at a flow rate of 0.2 ml/min over 20 min and a column temperature of 30° C. was used. The detailed parameters for the quantification of Dap3, Dap3-MG and CycK(e-Hdd)R4E, are described below

On to `N=C(N)NN` [Aminoguanidine], for which the half-life result in data set [1] is recorded as “very short”.

`NC[C@H](N)C(=O)NCCCC[C@@H]1NC(=O)[C@H](CCCCNC(=O)[C@@H](N)CN)NC(=O)[C@H](CCC(=O)O)NC(=O)[C@H](CCCCNC(=O)[C@@H](N)CN)NC(=O)[C@H](CCCCNC(=O)CC[C@@H](NC(=O)CCCCCCCCCCCCCCC(=O)O)C(=O)O)NC(=O)CC[C@@H](C(=O)O)NC1=O` [Dap3] (K([d(γGlu)-C16 diacid])K(Dap)EK(Dap)K(Dap)E-OH; lactam N-6): the plasma half-life result in data set [2] is listed as “long plasma half-life”.
